Measurements taken from patent US8680089B2, “Fused pyridine derivatives” (Xuanzhu Pharma Co., Ltd., priority 2010, dated 2014).
Where two headings read alike, the source gives them in different places.

Columns and labels:
Type in all cases: biochemical
DPP-8 = DPP-8 (Homo sapiens, UniProt Q6V1X1); experiment: Inhibition to DPP-8 measured by a fluorescence assay (DPPIV-Glo); conditions: 111.9 pM DPP-8, pH 7.5, 10 min preincubation at RT, 30 min reaction, 8 concentrations, assayed twice
Experimental: (§1) The preparation of the reaction solution DPPIV-Glo® buffer should be thawed in advance. The freeze-dried […] should be taken out of the refrigerator in advance and left to room temperature. The DPPIV-Glo® substrate was dissolved in 110 μl water, and mixed thoroughly by votex as a stock solution (the concentration is 10 mmol). The […] was added into an ampoule containing 50 mL DPPIV-Glo™ buffer. Then, 100 μl solution containing DPPIV-Glo™ substrate was mixed with 50 mL DPPIV-Glo™ buffer containing a […] to afford the reaction solution, which needs to be stored in a refrigerator at −20° C.
2. The inhibition to DPP-8 was measured by a fluorescence assay:
(§2) All of the compounds were 10-fold diluted by DMSO before the experiment, and each compound needs to be diluted to 8 concentrations. Before the experiment, the solution containing DPP-8 enzyme was incubated with the mixture of compounds for 10 min at RT. And then, the reaction solution was added and incubated for 30 min. The enzyme was not added to the negative control group. The fluorescence signal was assayed after 30 min. All of the compounds were assayed twice.

DPP-9 = DPP-9 (Homo sapiens, UniProt Q86TI2); experiment: Inhibition to DPP-9 measured by a fluorescence assay (DPPIV-Glo)
Experimental: as §1
3. The inhibition to DPP-9 was measured by a fluorescence assay:
as §2, with “DPP-9” for “DPP-8”

DPP-IV = DPP-IV (Homo sapiens, UniProt P27487); experiment: Inhibition to DPP-IV measured by a fluorescence assay (DPPIV-Glo); conditions: 66 pM DPP-4, pH 7.5, 10 min preincubation at RT, 30 min reaction, 8 concentrations, assayed twice
Experimental: as §1
1. The inhibition to DPP-IV was measured by a fluorescence assay:
as §2, with “DPP-IV” for “DPP-8”

[1] = 26 pM DPP-9, pH 7.5, 10 min preincubation at RT, 30 min reaction, 8 concentrations, assayed twice, read-out: IC50 DPP-9

Chain of DPP-9 (Q86TI2 whole entry, species assumed): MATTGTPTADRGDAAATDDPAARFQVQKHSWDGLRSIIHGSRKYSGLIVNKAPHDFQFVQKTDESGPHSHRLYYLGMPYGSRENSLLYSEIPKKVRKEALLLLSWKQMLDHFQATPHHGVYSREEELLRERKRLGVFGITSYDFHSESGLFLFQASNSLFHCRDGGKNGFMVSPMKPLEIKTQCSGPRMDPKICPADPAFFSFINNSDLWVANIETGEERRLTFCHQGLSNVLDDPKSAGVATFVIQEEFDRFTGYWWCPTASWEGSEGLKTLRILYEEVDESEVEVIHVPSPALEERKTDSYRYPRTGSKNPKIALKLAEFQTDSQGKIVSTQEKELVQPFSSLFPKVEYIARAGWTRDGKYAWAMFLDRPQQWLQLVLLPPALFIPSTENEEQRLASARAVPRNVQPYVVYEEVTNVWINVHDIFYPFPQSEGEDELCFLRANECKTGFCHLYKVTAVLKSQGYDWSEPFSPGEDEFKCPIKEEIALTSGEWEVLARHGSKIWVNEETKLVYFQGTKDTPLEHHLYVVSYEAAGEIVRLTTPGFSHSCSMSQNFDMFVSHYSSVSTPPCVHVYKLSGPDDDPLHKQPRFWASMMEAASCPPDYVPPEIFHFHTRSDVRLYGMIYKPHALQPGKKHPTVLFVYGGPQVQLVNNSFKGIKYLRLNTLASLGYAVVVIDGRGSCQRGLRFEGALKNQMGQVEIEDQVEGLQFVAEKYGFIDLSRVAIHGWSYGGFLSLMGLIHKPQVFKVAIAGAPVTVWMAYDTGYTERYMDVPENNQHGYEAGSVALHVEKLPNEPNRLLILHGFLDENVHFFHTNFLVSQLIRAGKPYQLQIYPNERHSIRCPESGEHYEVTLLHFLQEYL
Chain of DPP-IV (P27487 whole entry, species assumed): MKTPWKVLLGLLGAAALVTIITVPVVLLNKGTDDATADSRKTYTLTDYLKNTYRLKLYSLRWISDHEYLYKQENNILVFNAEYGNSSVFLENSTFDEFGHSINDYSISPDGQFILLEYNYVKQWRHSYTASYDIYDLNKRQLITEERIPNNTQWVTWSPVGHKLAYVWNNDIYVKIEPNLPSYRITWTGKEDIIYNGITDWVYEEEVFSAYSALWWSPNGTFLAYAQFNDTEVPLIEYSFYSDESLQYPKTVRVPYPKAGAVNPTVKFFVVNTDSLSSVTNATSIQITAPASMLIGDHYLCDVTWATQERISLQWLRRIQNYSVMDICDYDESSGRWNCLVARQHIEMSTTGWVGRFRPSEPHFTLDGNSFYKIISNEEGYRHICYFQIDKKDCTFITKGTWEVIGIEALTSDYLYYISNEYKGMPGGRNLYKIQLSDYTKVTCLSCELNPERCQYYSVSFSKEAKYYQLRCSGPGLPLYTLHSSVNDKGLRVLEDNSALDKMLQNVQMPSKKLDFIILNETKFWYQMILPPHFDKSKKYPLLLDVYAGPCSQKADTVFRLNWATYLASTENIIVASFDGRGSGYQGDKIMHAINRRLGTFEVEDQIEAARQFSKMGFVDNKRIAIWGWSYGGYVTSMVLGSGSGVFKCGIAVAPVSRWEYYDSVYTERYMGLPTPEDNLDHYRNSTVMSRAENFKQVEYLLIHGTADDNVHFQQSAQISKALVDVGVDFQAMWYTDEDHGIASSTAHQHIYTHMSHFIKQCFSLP
Chain of DPP-8 (Q6V1X1 whole entry, species assumed): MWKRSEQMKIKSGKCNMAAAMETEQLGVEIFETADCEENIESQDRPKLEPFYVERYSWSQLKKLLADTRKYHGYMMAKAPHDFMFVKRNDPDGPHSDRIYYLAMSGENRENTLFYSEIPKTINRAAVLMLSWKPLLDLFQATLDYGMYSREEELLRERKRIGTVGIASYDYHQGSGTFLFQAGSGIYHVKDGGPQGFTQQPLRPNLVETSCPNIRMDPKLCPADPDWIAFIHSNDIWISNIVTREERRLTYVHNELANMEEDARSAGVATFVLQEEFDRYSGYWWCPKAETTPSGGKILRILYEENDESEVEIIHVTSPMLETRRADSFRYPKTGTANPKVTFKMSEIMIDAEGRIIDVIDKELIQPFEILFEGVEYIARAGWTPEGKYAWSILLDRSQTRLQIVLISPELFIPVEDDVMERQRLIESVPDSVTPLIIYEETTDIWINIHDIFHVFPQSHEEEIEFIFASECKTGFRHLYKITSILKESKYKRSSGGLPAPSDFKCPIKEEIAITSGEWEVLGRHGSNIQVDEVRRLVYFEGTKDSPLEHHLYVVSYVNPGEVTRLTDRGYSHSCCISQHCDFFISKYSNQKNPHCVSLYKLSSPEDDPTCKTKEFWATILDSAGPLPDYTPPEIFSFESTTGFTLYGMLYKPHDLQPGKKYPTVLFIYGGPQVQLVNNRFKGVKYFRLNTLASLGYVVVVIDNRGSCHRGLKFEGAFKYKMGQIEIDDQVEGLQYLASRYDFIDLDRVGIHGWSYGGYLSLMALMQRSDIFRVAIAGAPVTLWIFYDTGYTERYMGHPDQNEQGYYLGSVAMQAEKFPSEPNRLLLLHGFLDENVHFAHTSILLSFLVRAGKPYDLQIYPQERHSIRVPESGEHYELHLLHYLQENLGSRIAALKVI

| Compound | IC50 (DPP-8) | IC50 (DPP-9) | IC50 (DPP-IV) | IC50 (DPP-9; [1]) |
| --- | --- | --- | --- | --- |
| Cn1c(=O)n(Cc2ccccc2C#N)c2c(N3CCC[C@@H](N)C3)ccnc21 [Compound 1, (R)-2-[[7-(3-aminopiperidin-1-yl)-3-methyl-2-oxo-2,3-dihydro-1H-imidazo[4,5-b]pyridin-1-yl]methyl]benzonitrile] | > 100 µM | > 100 µM |  |  |
| CC(C)n1c(=O)n(Cc2ccccc2C#N)c2c(N3CCC[C@@H](N)C3)ccnc21 [Compound 2, (R)-2-[[7-(3-aminopiperidin-1-yl)-3-isopropyl-2-oxo-2,3-dihydro-1H-imidazo[4,5-b]pyridin-1-yl]methyl]benzonitrile] | > 100 µM | > 100 µM |  |  |
| Cn1c(=O)n(Cc2ccccc2F)c2c(N3CCC[C@@H](N)C3)ccnc21 [Compound 3, (R)-1-(2-fluorobenzyl)-7-(3-aminopiperidin-1-yl)-3-methyl-1H-imidazo[4,5-b]pyridin-2(3H)-one] | > 100 µM | > 100 µM |  |  |
| Cn1c(=O)n(Cc2cc(F)ccc2F)c2c(N3CCC[C@@H](N)C3)ccnc21 [Compound 4, (R)-1-(2,5-difluorobenzyl)-7-(3-aminopiperidin-1-yl)-3-methyl-1H-imidazo[4,5-b]pyridine-2(3H)-one] | > 100 µM |  | 0.545 µM | > 100 µM |
| Cn1c(=O)n(Cc2ccccc2Cl)c2c(N3CCC[C@@H](N)C3)ccnc21 [Compound 5, (R)-1-(2-chlorobenzyl)-7-(3-aminopiperidin-1-yl)-3-methyl-1H-imidazo[4,5-b]pyridine-2(3H)-one] | > 100 µM | > 100 µM |  |  |
| CN[C@@H]1CCCN(c2ccnc3c2n(Cc2ccccc2C#N)c(=O)n3C)C1 [Compound 6, (R)-2-[[3-methyl-7-[3-(methylamino)piperidin-1-yl]-2-oxo-2,3-dihydro-1H-imidazo[4,5-b]pyridin-1-yl]methyl]benzonitrile] | > 100 µM | > 100 µM |  |  |
| N#Cc1ccccc1Cn1c(=O)oc2nccc(N3CCC[C@@H](N)C3)c21 [Compound 11, (R)-2-[[7-(3-aminopiperidin-1-yl)-2-oxo-oxazolo[5,4-b]pyridin-1(2H)-yl]methyl]benzonitrile] | > 100 µM | > 100 µM |  |  |
| Cn1c(=O)n(Cc2ccccc2C#N)c2c(N3CC[C@@H](N)C3)ccnc21 [Compound 12, (R)-2-[[7-(3-aminopyrrolidin-1-yl)-3-methyl-2-oxo-2,3-dihydro-1H-imidazo[4,5-b]pyridin-1-yl]methyl]benzonitrile] | > 100 µM | > 100 µM |  |  |
| Cn1c(=O)n(Cc2ccccc2C#N)c2c(N3CCCCC(N)C3)ccnc21 (centres unmarked) [Compound 15, 2-[[7-(3-aminohomopiperidin-1-yl)-3-methyl-2-oxo-2,3-dihydro-1H-imidazo[4,5-b]pyridin-1-yl]methyl]benzonitrile] | > 100 µM | > 100 µM |  |  |
| Cc1cc(N2CCC[C@@H](N)C2)c2c(n1)n(C)c(=O)n2Cc1ccccc1C#N [Compound 17, (R)-2-[[7-(3-aminopiperidin-1-yl)-3,5-dimethyl-2-oxo-2,3-dihydro-1H-imidazo[4,5-b]pyridin-1-yl]methyl]benzonitrile] | > 100 µM |  | 0.0089 µM | > 100 µM |
| Cn1c(=O)n(Cc2ccccc2C#N)c2c(N3CCC[C@@H](N)C3)c3ccccc3nc21 [Compound 18, (R)-2-[[9-(3-aminopiperidin-1-yl)-3-methyl-2-oxo-2,3-dihydro-1H-imidazo[4,5-b]quinolin-1-yl]methyl]benzonitrile] | > 100 µM | > 100 µM |  |  |
| N#Cc1ccccc1Cn1c(=O)[nH]c2nccc(N3CCC[C@@H](N)C3)c21 [Compound 19, (R)-2-[[7-(3-aminopiperidin-1-yl)-2-oxo-2,3-dihydro-1H-imidazo[4,5-b]pyridin-1-yl]methyl]benzonitrile] | > 100 µM | > 100 µM |  |  |
| Cc1cc(N2CC[C@@H](N)C2)c2c(n1)n(C)c(=O)n2Cc1ccccc1C#N [Compound 21, (R)-2-[[7-(3-aminopyrrolidin-1-yl)-3,5-dimethyl-2-oxo-2,3-dihydro-1H-imidazo[4,5-b]pyridin-1-yl]methyl]benzonitrile] | > 100 µM |  | 0.0112 µM | > 100 µM |
| Cn1c(=O)n(Cc2ccccc2C#N)c2c(N3CCC[C@@H](N)C3)cc(Cl)nc21 [Compound 22] | > 100 µM |  | 0.01 µM | > 100 µM |
| CN(C)c1cc(N2CCC[C@@H](N)C2)c2c(n1)n(C)c(=O)n2Cc1ccccc1C#N [Compound 23, (R)-2-[[7-(3-aminopiperidin-1-yl)-5-(dimethylamino)-3-methyl-2-oxo-2,3-dihydro-1H-imidazo[4,5-b]pyridin-1-yl]methyl]benzonitrile] | > 100 µM |  | 0.0229 µM | > 100 µM |
| CCc1cc(N2CCC[C@@H](N)C2)c2c(n1)n(C)c(=O)n2Cc1ccccc1C#N [Compound 25, (R)-2-[[7-(3-aminopiperidin-1-yl)-5-ethyl-3-methyl-2-oxo-2,3-dihydro-1H-imidazo[4,5-b]pyridin-1-yl]methyl]benzonitrile] | > 100 µM |  | 0.0193 µM | > 100 µM |
| CCn1c(=O)n(Cc2ccccc2C#N)c2c(N3CCC[C@@H](N)C3)cc(C)nc21 [Compound 26, (R)-2-[[7-(3-aminopiperidin-1-yl)-3-ethyl-5-methyl-2-oxo-2,3-dihydro-1H-imidazo[4,5-b]pyridin-1-yl]methyl]benzonitrile] | > 100 µM |  | 0.0569 µM | > 100 µM |
| Cn1c(=O)n(Cc2ccccc2C#N)c2c(N3CCC[C@@H](N)C3)cc(CO)nc21 [Compound 29, (R)-2-[[7-(3-aminopiperidin-1-yl)-3-methyl-5-hydroxymethyl-2-oxo-2,3-dihydro-1H-imidazo[4,5-b]pyridin-1-yl]methyl]benzonitrile] | > 100 µM |  | 0.0135 µM | > 100 µM |
| Cn1c(=O)n(Cc2ccccc2C#N)c2c(N3CCC[C@@H](N)C3)cc(C(=O)O)nc21 [Compound 30, (R)-7-(3-aminopiperidin-1-yl)-1-(2-cyanobenzyl)-3-methyl-2-oxo-2,3-dihydro-1H-imidazo[4,5-b]pyridine-5-formylic acid] | > 100 µM |  | 0.0079 µM | > 100 µM |
| Cc1cc(N2CCC[C@@H](NCc3ccccc3C#N)C2)c2c(n1)n(C)c(=O)n2Cc1ccccc1C#N [Compound 31, (R)-7-[3-(2-cyanobenzyl)aminopiperidin-1-yl]-1-(2-cyanobenzyl)-3,5-dimethyl-2-oxo-2,3-dihydro-1H-imidazo[4,5-b]pyridine] | > 100 µM |  | 0.422 µM | > 100 µM |
